ChEMBL document CHEMBL3430912, “GSK Tres Cantos Anti-Kinetoplastid Screening (TCAKS) Data”

Tests used:
[1] = tested on: Trypanosoma brucei brucei; experiment: GSK_TCAKS: pIC50 Trypanosoma brucei viability assay using fluorescence intensity. Assay plates (1536-well) were prepared by dispensing 25nL of compound solution per well using an Echo acoustic dispenser (Labcyte).; type: functional, organism-based; details: Lister 427, 2 h
Leishmania donovani [2] = experiment: GSK_TCAKS: pIC50 Leishmania donovani Imaging: Amastigotes/Macrophages. Assay plates (384-well) were prepared by adding 250nL of compound to each well. For single shot assay, the final compound concentration was 5 uM. […] Automated image analysis was performed with a script developed on Acapella High Content Imaging and Analysis Software (PerkinElmer). Output: Average number of amastigotes per macrophage cell were reported for each well.; type: functional, organism-based, Homo sapiens; details: THP-1
Trypanosoma cruzi [3] = experiment: GSK_TCAKS: pIC50 Trypanosoma cruzi viability assay using beta-GAL activity. This assay was run at single shot at 5uM compound concentration per well. The biological reagents consisted of NIH-3T3 host cells and trypomastigotes parasitic cells; both cell types were set to a 3.3 * 10^5 cells/mL dilution in assay DMEM by means of a CASY cell counter device using a 60um capillary. 6 uL of the mixture were dispensed per well (about 1 * 10^3 host-cells and 1 * 10^3 parasites) with a Multidrop Combi dispenser. […] In all wells, the percentage of DMSO never exceeded 0.5%. Plates incubated for four days at 37C, 5% CO2. The substrate used for the assay fluorescence intensity (FLINT) readout was resorufin-beta-D-galactopiranoside (Sigma-Aldrich) at 5uM per well. It was diluted in PBS supplemented with the soft detergent Igepal (Fluka).; type: functional, organism-based, Mus musculus; details: Tulahuen, NIH3T3
[4] = target: Sterol 14-alpha demethylase (Trypanosoma cruzi (strain CL Brener), UniProt Q7Z1V1); experiment: GSK_TCAKS: pIC50 CYP51 from Trypanosoma cruzi.; type: functional
Chain of Sterol 14-alpha demethylase (Q7Z1V1 whole entry): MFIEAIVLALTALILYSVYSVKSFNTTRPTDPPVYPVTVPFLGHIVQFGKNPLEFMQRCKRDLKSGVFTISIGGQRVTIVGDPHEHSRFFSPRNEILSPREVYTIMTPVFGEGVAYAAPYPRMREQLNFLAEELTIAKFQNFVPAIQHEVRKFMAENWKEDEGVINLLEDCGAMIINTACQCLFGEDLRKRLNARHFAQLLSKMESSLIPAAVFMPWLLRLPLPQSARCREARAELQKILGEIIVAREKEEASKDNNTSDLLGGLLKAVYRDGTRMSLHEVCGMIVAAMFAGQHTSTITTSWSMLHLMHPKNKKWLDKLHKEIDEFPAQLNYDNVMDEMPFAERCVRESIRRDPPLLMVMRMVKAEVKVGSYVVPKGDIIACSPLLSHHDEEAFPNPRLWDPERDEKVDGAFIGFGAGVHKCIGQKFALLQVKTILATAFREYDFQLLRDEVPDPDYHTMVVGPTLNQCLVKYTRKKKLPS

Trypanosoma cruzi [5] = experiment: (§1) GSK_TCAKS: pIC50 Trypanosoma cruzi Imaging: Infected Cells. […] Cells were then washed once with PBS before infection. T. cruzi trypomastigotes, collected at days 5 to 8 after infection from LLC-MK2 parasite infected cultures, were allowed to swim out for 4h at 37C from a centrifuged pellet (2,500 rpm/10 min/room temperature). Trypomastigotes were then collected and counted in a CASY Cell Counter. Trypomastigotes, in supplemented DMEM, were added to H9c2 cultures in a multiplicity of infection of 1 and incubated for 18 h. Cells were washed once with PBS before incubation of the infected H9c2 monolayer with trypsin (Life-Technologies) to detach cells from the flask. Cells were counted in a CASY Cell Counter using a 150 um capillary and their density set at 5 * 10^4 cells per mL in supplemented assay DMEM. Infected H9c2 were dispensed into 384-well poly-lysine coated assay plates at 50uL per well using a Multidrop Combi dispenser. After seeding them, the plates were incubated at 37C, 5% CO2 for 72h. Cultures were then fixed and stained by addition of 50 uL of a solution containing 8% formaldehyde and 4 uM DRAQ5 DNA dye (BioStatus, UK) per well. […] Five images were collected per well for reliable statistical analysis. Automated image analysis was performed with a script developed on Acapella High Content Imaging and Analysis Software (PerkinElmer). Output: percentage of infected cells per well as a second infection marker.; type: functional, organism-based, Rattus norvegicus; details: H9c2, 4 h
Trypanosoma cruzi [6] = experiment: as §1, with “H2C9” for “Trypanosoma cruzi”, “H9c2 Host Cardiomyocytes.” for “Infected Cells.”, “Number” for “percentage”, “H9c2 Host Cardiomyocytes nuclei to determine drug-related cytotoxicity.” for “infected cells per well as a second infection marker.”; type: functional, organism-based, Rattus norvegicus; details: H9c2, 4 h
Leishmania donovani [7] = experiment: GSK_TCAKS: pIC50 Leishmania donovani Imaging: THP-1 Host Macrophages. Assay plates (384-well) were prepared by adding 250nL of compound to each well. For single shot assay, the final compound concentration was 5 uM. […] Automated image analysis was performed with a script developed on Acapella High Content Imaging and Analysis Software (PerkinElmer). Output: THP-1 cell count were reported for each well.; type: functional, organism-based, Homo sapiens
Trypanosoma cruzi [8] = experiment: GSK_TCAKS: pIC50 Trypanosoma cruzi Imaging: Amastigotes/Cell. […] Cells were then washed once with PBS before infection. T. cruzi trypomastigotes, collected at days 5 to 8 after infection from LLC-MK2 parasite infected cultures, were allowed to swim out for 4h at 37C from a centrifuged pellet (2,500 rpm/10 min/room temperature). Trypomastigotes were then collected and counted in a CASY Cell Counter. Trypomastigotes, in supplemented DMEM, were added to H9c2 cultures in a multiplicity of infection of 1 and incubated for 18 h. Cells were washed once with PBS before incubation of the infected H9c2 monolayer with trypsin (Life-Technologies) to detach cells from the flask. Cells were counted in a CASY Cell Counter using a 150 um capillary and their density set at 5 * 10^4 cells per mL in supplemented assay DMEM. Infected H9c2 were dispensed into 384-well poly-lysine coated assay plates at 50uL per well using a Multidrop Combi dispenser. After seeding them, the plates were incubated at 37C, 5% CO2 for 72h. Cultures were then fixed and stained by addition of 50 uL of a solution containing 8% formaldehyde and 4 uM DRAQ5 DNA dye (BioStatus, UK) per well. […] Five images were collected per well for reliable statistical analysis. Automated image analysis was performed with a script developed on Acapella High Content Imaging and Analysis Software (PerkinElmer). Output: number of amastigotes per cell as infection level measurement.; type: functional, organism-based, Rattus norvegicus; details: H9c2, 4 h
Leishmania donovani [9] = experiment: GSK_TCAKS: pIC50 Leishmania donovani Imaging: Infected Macrophages. Assay plates (384-well) were prepared by adding 250nL of compound to each well. For single shot assay, the final compound concentration was 5 uM. […] Automated image analysis was performed with a script developed on Acapella High Content Imaging and Analysis Software (PerkinElmer). Output: Percent of infected macrophage cells were reported for each well.; type: functional, organism-based, Homo sapiens; details: THP-1
Leishmania donovani [10] = experiment: GSK_TCAKS: pIC50 Leishmania donovani viability assay using fluorescence intensity. Assay plates (1536-well) were prepared by adding 30nL per well of compound. For single shot assay, the final compound concentration was 5uM. […] Briefly, eGFP LdBOB axenic amastigotes were harvested, fixed and counted in a CASY cell counter (Roche-Applied Science). A final concentration of 1.5 * 10^5 cells per well were prepared in amastigote media containing 500 U/mL penicillin/streptomycin (Invitrogen) and 6uL was dispensed to each experimental well using a Multidrop Combi dispenser (Thermo Scientific). 6uL of assay media was dispensed to control columns used as reference for 100% compound response. Following incubation for 72 h at 37C, 5% CO2, 2 uL of resazurin was added to each well at a final concentration of 0.5 mM in phosphate buffered saline (PBS) with IGEPAL (Sigma-Aldrich), 0.05% (v/v).; type: functional, organism-based
[11] = GSK_TCAKS: pIC50 HepG2 human cell line viability assay using luminiscence. […] Seeding density was checked to ensure that new mono-layers were not more than 50% confluent at the time of harvesting. Cell suspension was added to 500 mL of the same medium at a final density of 1.2 * 10^5 cells/mL. This cell suspension was dispensed (25 uL, 3000 cells per well) into 384-well clear-bottom plates using a Multidrop Combi dispenser. Prior to addition of the cell suspension, the screening compounds (250 nL) were pre-dispensed into the plates with an Echo liquid handler. Plates were incubated for 48 h at 37C, 5% CO2. After incubation, plates equilibrated at room temperature for 30 min before proceeding to develop the luminescent signal. The signal developer, CellTiter-Glo Reagent, was allowed to equilibrate at room temperature for 30 min and added to the plates (25uL per well) using a Multidrop Combi dispenser. Plates were left for 10 min at room temperature for stabilization and then read using a ViewLux.; type: toxicity, cell-based
[12] = tested on: Trypanosoma brucei brucei; experiment: GSK_TCAKS: pIC50 Trypanosoma brucei viability assay using luminiscence. Assay plates (1536-well) were prepared. T. brucei cultures were harvested and counted in a CASY cell counter. A parasite suspension was prepared at a final concentration of 5 * 10^4 cells/mL in complete HMI9 medium and 6uL was dispensed to all wells containing compounds using a Multidrop Combi dispenser. 6uL of HMI9 media with 0.4% DMSO were dispensed to control columns. Plates were incubated for 24 h at 37C, 5% CO2 then tempered for 10 min at room temperature. ATP content was quantified by adding 4 uL of CellTiter-Glo Reagent (Promega) according to the manufacturer's instructions. Luminescence was measured using a ViewLux.; type: functional, organism-based; details: Lister 427, CASY

SMILES	IC50 [1] [µM]	IC50 (Leishmania donovani [2]) [µM]	IC50 (Trypanosoma cruzi [3]) [µM]	IC50 [4] [µM]	IC50 (Trypanosoma cruzi [5]) [µM]	IC50 (Trypanosoma cruzi [6]) [µM]	IC50 (Leishmania donovani [7]) [µM]	IC50 (Trypanosoma cruzi [8]) [µM]	IC50 (Leishmania donovani [9]) [µM]	IC50 (Leishmania donovani [10]) [µM]	IC50 at 48 h [11] [µM]	IC50 [12] [µM]
COc1ccccc1-n1c(SCC(=O)Nc2ccc3c(c2)OCO3)nc2c(c1=O)SCC2	> 39.8	5.01	39.8	63.1	15.8	> 50.1	> 50.1	7.94	7.94	10	> 100	> 39.8
CN(Cc1nc2ccc(C(=O)NCC3CCCCC3)cc2[nH]1)C1CCCc2cccnc21 (configuration not stated)	0.794	0.398	0.501	39.8	0.631	5.01	6.31	0.316	0.501	3.16	15.8	0.316
COc1ccc2ncc(Cl)c(CCN3CC[C@@H](NCc4cc5c(cn4)OCS5)[C@H](O)C3)c2n1	0.316	7.94	0.126	1	0.0794	25.1	25.1	0.0631	12.6	10	50.1	0.398
COc1ccc2ncc(Cl)c(CCN3CC[C@H](NCc4cc5c(cn4)OCS5)[C@@H](O)C3)c2n1	0.316	0.501	0.126	7.94	0.158	10	6.31	0.1	1	2	25.1	0.631
C[C@@H](Oc1cc(-n2cnc3ccc(O[C@H]4CCNC4)cc32)sc1C(N)=O)c1ccccc1Cl	0.251	5.01	3.16	1.26	12.6	0.631	6.31	6.31	7.94	> 50.1	15.8	0.794
O=C(Cc1ccccc1)Nc1ccccc1C(=O)Nc1nccs1	0.251	> 50.1	39.8	> 100	> 50.1	> 50.1	> 50.1	> 50.1	> 50.1	> 50.1	> 100	0.251
CC(C)(C)c1csc(NC(=O)c2ccc([N+](=O)[O-])s2)n1	0.2	2.51	0.158	7.94	0.316	12.6	> 50.1	0.2	3.16	1.58	50.1	1.58
CCN(Cc1nc2ccc(C(=O)N3CCN(c4ncccn4)CC3)cc2[nH]1)C1CCCc2cccnc21 (configuration not stated)	2.51	1.58	1.26	7.94	12.6	15.8	20	2	3.98	5.01	> 100	5.01
O=C(Nc1nc(-c2ccc(F)cc2)cs1)c1ccc([N+](=O)[O-])s1	0.251	1	0.2	50.1	0.251	3.98	7.94	0.158	1.26	0.631	12.6	1.26
COc1ccc(-c2csc(NC(=O)c3ccc([N+](=O)[O-])s3)n2)cc1	0.0794	1.58	0.158	> 100	0.251	31.6	> 50.1	0.2	3.98	3.16	> 100	0.794
CN(Cc1nc2cccc(C(=O)N3CCN(Cc4ccccc4)CC3)c2[nH]1)C1CCCc2cccnc21 (configuration not stated)	0.631	0.794	0.794	39.8	0.501	7.94	10	0.501	1.26	5.01	12.6	1
